Results from patent US20120190703A1, “SALTS OF 13A-(S)DESOXYTYLOPHORININE, PREPARATION METHODS AND PHARMACEUTICAL COMPOSITIONS AND USES THEREOF” (priority 2009, published 2012).
Like-named read-outs stand apart in the source and are kept apart here. Marks after values point to notes of the source that are not given here.

Legend:
Solubility in water = format: physicochemical
H22 tumor-bearing mice = conditions: intragastric once daily
Source text: To determine the pharmacodynamic characters of 13a-(S)-deoxytylophorinine and its salts, the impact of these compounds to the tumor growth in H22 tumor-bearing mice was surveyed.
Male Kunming mice were obtained from the Laboratory Animal Center, Academy of Military Medical Science. Body weight 18˜22 g. 6 animals per group, totally 10 groups, 60 animals.
(+)-13a-(S)-deoxytylophorinine, (+)-13a-(S)-deoxytylophorinine Tartrate, (+)-13a-(S)-deoxytylophorinine Maleate, (+)-13a-(S)-deoxytylophorinine Citrate, Cytoxane (CTX) as positive control.
(+)-13a-(S)-deoxytylophorinine was administered at high dose (5 mg/kg) and low dose (2.5 mg/kg). Three (+)-13a-(S)-deoxytylophorinine salts were administered at high dose and low dose as equal moles with their prototype (Tartrate: 7.05 mg/kg, 3.53 mg/kg; Malate: 6.60 mg/kg, 3.30 mg/kg; Citrate: 7.90 mg/kg, 3.95 mg/kg).
Animals were reared in SPF grade circumstance to be observed for 24 h. The tumor cells liquid which resuscitated in abdominal cavity of KM mice was diluted with aseptic normal saline at 1:3 ratio. The resulting liquid was inoculated subcutaneously at forelimb with 0.2 mL every animal. After the injection over, the animals were divided to […] with 6 animals per group.
Four experimental samples were intragastric administered once daily 24 h after inoculation. The positive control CTX was intraperitoneal injected once daily. The animal body weight was recorded every day.

[1] = Plasma pharmacokinetics after oral administration in mice; conditions: plasma
Protocol: To determine the pharmacokinetic characters of 13a-(S)-deoxytylophorinine and its salts, the studies about plasma pharmacokinetics and the character of distribution in brain were pursued.
Male ICR mice. Body weight 18˜22 g.
(+)-13a-(S)-deoxytylophorinine Tartrate, (+)-13a-(S)-deoxytylophorinine Maleate, (+)-13a-(S)-deoxytylophorinine Citrate. All were dissolved in distilled water as 0.6 mg/ml solution before experiment progressed.
72 mice were divided to 3 groups with 24 animals per group, fasting for 16 h and drinking water freely. […] Plasma was isolated by centrifugalization. After the salts were administered orally, the brain tissues of mice were collected at 5 min, 15 min, 2 h time points. 25% tissue homogenate was prepared with normal saline addition. 200 μL of homogenate and plasma were added isovolumic MeCN to precipitate protein. 5 μL of clear supernatant was analyzed by LC/MS/MS.
(+)-13a-(S)-deoxytylophorinine was dissolved in DMSO and then diluted with MeOH with concentration 10, 50, 100, 500, 1000 and 2500 ng/ml respectively. 10 μl of standard solutions of (+)-13a-(S)-deoxytylophorinine with different concentration above were added to 200 μl of blank plasma sequently to adjust the concentration to 0.5, 2.5, 5, 25, 50, 125 ng/ml respectively. MeCN was added to the solution to precipitate protein, and 5 μl of result clear supernatant was analyzed with LC/MS/MS. Linear regression was ran with the peak area of (+)-13a-(S)-deoxytylophorinine as ordinate and the concentrations as abscissa.

[2] = preliminary toxic experiments, background art; cited from earlier work
mice H22 liver cancer = conditions: background art; cited from earlier work
mice Lewis lung cancer = conditions: background art; cited from earlier work
[3] = test system: Bel7402 human liver cancer cell; assay: Cytotoxic activity assay (MTT), Bel7402; format: cell-based; conditions: Bel-7402, 120 h, 5 days
Protocol: (§1) To evaluate the in vitro antitumor activity of (+)-13a-(S)-Deoxytylophorinine salts in this invention, Cytotoxic activity assay (MTT) experiment was persued.
(§2) 1. Tumor cells at log phase were incubated on 96-well plates at a density of 1˜1.0×10^4 cells/ml, 100 μl/well. Cells were cultured for 24 h at 37° C. in a cell incubator with 5% CO2.
(§3) 2. The treatment cells were exposed to the tested agents at different concentrations and cultured for 5 days in a cell incubator with full humidity incubator.
(§4) 3. The incubation medium was removed, then 100 μl 0.04% MTT was added to each well and Cells were cultured for 4 hours under the same conditions.
(§5) 4. The incubation medium was removed, then 150 μl DMSO was added to each well, the absorbance at a reference wavelength of 450 nm and a test wavelength of 570 nm was read. Drug inhibitory rate was calculated.

[4] = test system: Hct8 human colon cancer cell; assay: Cytotoxic activity assay (MTT), Hct8; format: cell-based; conditions: HCT-8, 120 h, 5 days
Protocol: as §1, §2, §3, §4, §5

[5] = high dose × 7 d, equal moles: prototype 5.0, tartrate 7.05, maleate 6.60, citrate 7.90 mg/kg
[6] = low dose × 7 d, equal moles: prototype 2.5, tartrate 3.53, maleate 3.30, citrate 3.95 mg/kg

For `COc1ccc2c3c(c4cc(OC)c(OC)cc4c2c1)CN1CCC[C@H]1C3` [(+)-13a-(S)-deoxytylophorinine, reference compound], the Solubility in water (Solubility in water) was “Insoluble”, the “Solubility in water (words)” value (Solubility in water; statement in text, listed as 13a-(S)-Deoxytylophorinine) was “insoluble in water” and the “Solubility in water (words)” value (Solubility in water; statement in text, listed as (+)-13a-(S)-Deoxytylophorinine) was “can not be dissolved in water”. For the same compound, the “Animal No. (Initial/Final)” value (H22 tumor-bearing mice; [5]) was 6/4, the “Body Weight(g) Final” value (H22 tumor-bearing mice; [5]) was 15.63 ± 2.16 g and the “Body Weight(g) Initial” value (H22 tumor-bearing mice; [5]) was 23.50 ± 2.51 g⁻¹. For the same compound, the “Inhibition (%)” value (H22 tumor-bearing mice; [5]) was 74.02** %, the “Tumor Weight (g, mean ± SD)” value (H22 tumor-bearing mice; [5]) was 0.30 ± 0.12 g and the “Animal No. (Initial/Final)” value (H22 tumor-bearing mice; [6]) was 6/6. For the same compound, the “Body Weight(g) Final” value (H22 tumor-bearing mice; [6]) was 23.31 ± 2.14 g, the “Body Weight(g) Initial” value (H22 tumor-bearing mice; [6]) was 23.00 ± 1.55 g⁻¹ and the “Inhibition (%)” value (H22 tumor-bearing mice; [6]) was 42.79* %. For the same compound, the “Tumor Weight (g, mean ± SD)” value (H22 tumor-bearing mice; [6]) was 0.66 ± 0.21 g, the t½z ([1]; 6 mg/kg oral, mice, non-compartment model) was 26.4 min and the AUC(0-inf) ([1]; male, ICR, mouse, po, 6 mg/kg) was 33.7 ng·h/mL. The AUC(0-t) ([1]; male, ICR, mouse, po, 6 mg/kg) was 33.3 ng·h/mL, the Cmax ([1]; male, ICR, mouse, po, 6 mg/kg) was 41.5 ng/mL and the MRT inf ([1]; male, ICR, mouse, po, 6 mg/kg) was 48 min. The MRT last ([1]; male, ICR, mouse, po, 6 mg/kg) was 46.2 min, the Tmax ([1]; male, ICR, mouse, po, 6 mg/kg) was 15 min and the “Toxicity in the liver and kidney” value [2] was “not toxic in the liver and kidney”. The “Anti-tumor proliferative activity, mice H22 liver cancer” value (mice H22 liver cancer) was “notable anti-tumor proliferative activity” and the “Anti-tumor proliferative activity, mice Lewis lung cancer” value (mice Lewis lung cancer) was “notable anti-tumor proliferative activity”.

In the case of `CC(O)C(=O)O.COc1ccc2c3c(c4cc(OC)c(OC)cc4c2c1)CN1CCC[C@H]1C3` [Lactate, (+)-13a-(S)-deoxytylophorinine Lactate], the “Solubility in water (words)” value (Solubility in water) is reported as “soluble in water”, the solubility (Solubility in water; water) is reported as 120 mg/mL and the IC50 [3] is reported as 40 nM. For the same compound, the IC50 [4] was 79 nM.
